According to patent US20240309005A1 (priority 2021, published 2024):
≈ marks a conversion by molar mass, not a printed value.

Test: physchem
Details: 25 °C, kinetic from dmso stock

Row | Compound | solubility at 2 h (pH 5, fessif) [µM] | solubility at 2 h (pH 7.4, aqueous buffer) [µM]
1 | Cc1n[nH]c2nc(-c3ccc(NS(=O)(=O)c4cc(Cl)ccc4F)cc3)nc(OCCN(C)C)c12 [Compound 8, 5-chloro-N-(4-(4-(2-(dimethylamino)ethoxy)-3-methyl-1H-pyrazolo[3,4-d]pyrimidin-6-yl)phenyl)-2-fluorobenzenesulfonamide] | 91 (≈ 46 µg/mL) | 0.23 (≈ 0.116 µg/mL)
2 | Cc1n[nH]c2nc(-c3ccc(NS(=O)(=O)c4cc(Cl)ccc4F)cc3)nc(NCCN(C)C)c12 [Compound 9, 5-chloro-N-(4-(4-((2-(dimethylamino)ethyl)amino)-3-methyl-1H-pyrazolo[3,4-d]pyrimidin-6-yl)phenyl)-2-fluorobenzenesulfonamide] | 289 (≈ 146 µg/mL) | 8.5 (≈ 4.28 µg/mL)
3 | Cc1n[nH]c2nc(-c3ccc(NS(=O)(=O)c4cc(Cl)ccc4F)cc3)nc(NCc3ccncc3)c12 [Compound 13, 5-chloro-2-fluoro-N-(4-(3-methyl-4-((pyridin-4-ylmethyl)amino)-1H-pyrazolo[3,4-d]pyrimidin-6-yl)phenyl)benzenesulfonamide] | 5.81 (≈ 3.04 µg/mL) | < 0.12
4 | Cc1n[nH]c2nc(-c3ccc(NS(=O)(=O)c4ccccn4)cc3)nc(NCCN(C)CCO)c12 [Compound 20] | 277 (≈ 134 µg/mL) | 82 (≈ 39.6 µg/mL)
5 | Cc1n[nH]c2nc(-c3ccc(NS(=O)(=O)c4cccnc4)cc3)nc(NCCN(C)CCO)c12 [Compound 21, N-[4-[4-([2-[(2-hydroxyethyl)(methyl)amino]ethyl]amino)-3-methyl-1H-pyrazolo[3,4-d]pyrimidin-6-yl]phenyl]pyridine-3-sulfonamide] | 302 (≈ 146 µg/mL) | 2.26 (≈ 1.09 µg/mL)
6 | Cc1n[nH]c2nc(-c3ccc(NS(=O)(=O)c4cc(Cl)ccc4F)cc3)nc(NCCN3CCOCC3)c12 [Compound 26, 5-chloro-2-fluoro-N-(4-(3-methyl-4-((2-morpholinoethyl)amino)-1H-pyrazolo[3,4-d]pyrimidin-6-yl)phenyl)benzenesulfonamide] | 285 (≈ 156 µg/mL) | 5.1 (≈ 2.78 µg/mL)
7 | Cc1n[nH]c2nc(-c3ccc(NS(=O)(=O)c4cc(F)ccc4F)cc3)nc(NCCN3CCCC3)c12 [Compound 33, 2,5-difluoro-N-(4-(3-methyl-4-((2-(pyrrolidin-1-yl)ethyl)amino)-1H-pyrazolo[3,4-d]pyrimidin-6-yl)phenyl)benzenesulfonamide] | 298 (≈ 153 µg/mL) | 3.8 (≈ 1.95 µg/mL)
8 | Cc1n[nH]c2nc(-c3ccc(NS(=O)(=O)c4cc(Cl)ccc4F)cc3)nc(O[C@H]3CCNC[C@H]3F)c12 [Compound 46, 5-chloro-2-fluoro-N-(4-(4-(((3R,4S)-3-fluoropiperidin-4-yl)oxy)-3-methyl-1H-pyrazolo[3,4-d]pyrimidin-6-yl)phenyl)benzenesulfonamide] | 174 (≈ 93.1 µg/mL) | 0.7 (≈ 0.374 µg/mL)
9 | Cc1n[nH]c2nc(-c3ccc(NS(=O)(=O)c4cc(Cl)ccc4F)cc3)nc(O[C@H]3CCNC[C@@H]3F)c12 [Compound 47, 5-chloro-2-fluoro-N-(4-(4-(((3S,4S)-3-fluoropiperidin-4-yl)oxy)-3-methyl-1H-pyrazolo[3,4-d]pyrimidin-6-yl)phenyl)benzenesulfonamide] | 211 (≈ 113 µg/mL) | 16.8 (≈ 8.99 µg/mL)
10 | Cc1n[nH]c2nc(-c3ccc(NS(=O)(=O)c4cc(Cl)ccc4F)cc3)nc(O[C@@H]3CNCC3(F)F)c12 [Compound 49, 5-chloro-N-(4-{4-[(4,4-difluoropyrrolidin-3-yl)oxy]-3-methyl-1H-pyrazolo[3,4-d]pyrimidin-6-yl}phenyl)-2-fluorobenzenesulfonamide] | 265 (≈ 143 µg/mL) | 0.27 (≈ 0.146 µg/mL)
11 | Cc1n[nH]c2nc(-c3ccc(NS(=O)(=O)c4cc(Cl)ccc4F)cc3)nc(O[C@@H]3CCNC[C@H]3F)c12 [Compound 53, 5-chloro-2-fluoro-N-[4-(4-{[(3R,4R)-3-fluoropiperidin-4-yl]oxy}-3-methyl-1H-pyrazolo[3,4-d]pyrimidin-6-yl)phenyl]benzenesulfonamide] | 283 (≈ 151 µg/mL) | 11.3 (≈ 6.05 µg/mL)
12 | CCN1C[C@H](F)[C@H](Oc2nc(-c3ccc(NS(=O)(=O)c4cc(Cl)ccc4F)cc3)nc3[nH]nc(C)c23)C1 [Compound 56, 5-chloro-N-[4-(4-{[(3R,4S)-1-ethyl-4-fluoropyrrolidin-3-yl]oxy}-3-methyl-1H-pyrazolo[3,4-d]pyrimidin-6-yl)phenyl]-2-fluorobenzenesulfonamide] | 73.7 (≈ 40.5 µg/mL) | 0.48 (≈ 0.264 µg/mL)

More lines, now with the values ahead:

Row | solubility at 2 h (pH 5, fessif) [µM] | solubility at 2 h (pH 7.4, aqueous buffer) [µM] | Compound
13 | 279 (≈ 127 µg/mL) | 290 (≈ 132 µg/mL) | C=CS(=O)(=O)Nc1ccc(-c2nc(OC3CCN(C(C)C)CC3)c3c(C)n[nH]c3n2)cc1 [Compound 1, N-(4-(4-((1-isopropylpiperidin-4-yl)oxy)-3-methyl-1H-pyrazolo[3,4-d]pyrimidin-6-yl)phenyl)ethenesulfonamide]
14 | 325 (≈ 173 µg/mL) | 19 (≈ 10.1 µg/mL) | Cc1n[nH]c2nc(-c3ccc(NS(=O)(=O)c4ccc(C#N)cc4)cc3)nc(OC3CCN(C(C)C)CC3)c12 [Compound 3, 4-cyano-N-(4-(4-((1-isopropylpiperidin-4-yl)oxy)-3-methyl-1H-pyrazolo[3,4-d]pyrimidin-6-yl)phenyl)benzenesulfonamide]
15 | 17.6 (≈ 9.43 µg/mL) | 293 (≈ 157 µg/mL) | Cc1n[nH]c2nc(-c3ccc(NS(=O)(=O)c4ccc(CN)cc4)cc3)nc(OC3CCN(C(C)C)CC3)c12 [Compound 4, 4-(aminomethyl)-N-(4-(4-((1-isopropylpiperidin-4-yl)oxy)-3-methyl-1H-pyrazolo[3,4-d]pyrimidin-6-yl)phenyl)benzenesulfonamide]
16 | 315 (≈ 149 µg/mL) | 40 (≈ 18.9 µg/mL) | Cc1n[nH]c2nc(-c3ccc(NS(=O)(=O)C(C)C)cc3)nc(OC3CCN(C(C)C)CC3)c12 [Compound 5, N-(4-(4-((1-isopropylpiperidin-4-yl)oxy)-3-methyl-1H-pyrazolo[3,4-d]pyrimidin-6-yl)phenyl)propane-2-sulfonamide]
17 | 258 (≈ 133 µg/mL) | 299 (≈ 154 µg/mL) | Cc1n[nH]c2nc(-c3ccc(NS(=O)(=O)N4CCCCC4)cc3)nc(OC3CCN(C(C)C)CC3)c12 [Compound 6, N-(4-(4-((1-isopropylpiperidin-4-yl)oxy)-3-methyl-1H-pyrazolo[3,4-d]pyrimidin-6-yl)phenyl)piperidine-1-sulfonamide]
18 | 33 (≈ 18.5 µg/mL) | 2.5 (≈ 1.4 µg/mL) | Cc1n[nH]c2nc(-c3cnc(NS(=O)(=O)c4cc(Cl)ccc4F)nc3)nc(OC3CCN(C(C)C)CC3)c12 [Compound 12, 5-chloro-2-fluoro-N-(5-(4-((1-isopropylpiperidin-4-yl)oxy)-3-methyl-1H-pyrazolo[3,4-d]pyrimidin-6-yl)pyrimidin-2-yl) benzenesulfonamide]
19 | 202 (≈ 107 µg/mL) | 1.12 (≈ 0.595 µg/mL) | Cc1n[nH]c2nc(-c3ccc(NS(=O)(=O)c4cc(Cl)ccc4F)cc3)nc(OC3CN(C(C)C)C3)c12 [Compound 17, 5-chloro-2-fluoro-N-(4-[4-[(1-isopropylazetidin-3-yl)oxy]-3-methyl-1H-pyrazolo[3,4-d]pyrimidin-6-yl]phenyl)benzenesulfonamide]
20 | 301 (≈ 160 µg/mL) | 15.6 (≈ 8.27 µg/mL) | Cc1n[nH]c2nc(-c3ccc(NS(=O)(=O)c4cc(Cl)ccc4F)cc3)nc(NC3CN(C(C)C)C3)c12 [Compound 25, 5-chloro-2-fluoro-N-(4-(4-((1-isopropylazetidin-3-yl)amino)-3-methyl-1H-pyrazolo[3,4-d]pyrimidin-6-yl)phenyl)benzenesulfonamide]
21 | 178 (≈ 89.5 µg/mL) | 63.6 (≈ 32 µg/mL) | Cc1n[nH]c2nc(-c3ccc(NS(=O)(=O)c4cc(Cl)ccc4F)cc3)nc(O[C@H]3CCNC3)c12 [Compound 48, 5-chloro-2-fluoro-N-(4-{3-methyl-4-[(3S)-pyrrolidin-3-yloxy]-1H-pyrazolo[3,4-d]pyrimidin-6-yl}phenyl)benzenesulfonamide]
22 | 244 (≈ 126 µg/mL) | 1.37 (≈ 0.708 µg/mL) | Cc1n[nH]c2nc(-c3ccc(NS(=O)(=O)c4cc(Cl)ccc4F)cc3)nc(OC3CCNCC3)c12 [Compound 55, 5-chloro-2-fluoro-N-{4-[3-methyl-4-(piperidin-4-yloxy)-1H-pyrazolo[3,4-d]pyrimidin-6-yl]phenyl}benzenesulfonamide]
23 | 262 (≈ 140 µg/mL) | 0.92 (≈ 0.492 µg/mL) | Cc1n[nH]c2nc(-c3ccc(NS(=O)(=O)c4cc(Cl)ccc4F)cc3)nc(O[C@@H]3CN(C)C[C@@H]3F)c12 [Compound 58, 5-chloro-2-fluoro-N-[4-(4-{[(3R,4S)-4-fluoro-1-methylpyrrolidin-3-yl]oxy}-3-methyl-1H-pyrazolo[3,4-d]pyrimidin-6-yl)phenyl]benzenesulfonamide]
24 | 16.2 (≈ 8.55 µg/mL) | 0.36 (≈ 0.19 µg/mL) | COc1ccnc(S(=O)(=O)Nc2ccc(-c3nc(O[C@@H]4CCN(C)C[C@@H]4F)c4c(C)n[nH]c4n3)cc2)c1 [Compound 62, N-[4-(4-{[(3S,4R)-3-fluoro-1-methylpiperidin-4-yl]oxy}-3-methyl-1H-pyrazolo[3,4-d]pyrimidin-6-yl)phenyl]-4-methoxypyridine-2-sulfonamide]
25 | 6.43 (≈ 3.85 µg/mL) | < 0.24 | Cc1n[nH]c2nc(-c3ccc(NS(=O)(=O)c4cc(Cl)ccc4F)cc3)nc(O[C@@H]3CCN(CC(F)F)C[C@@H]3F)c12 [Compound 64, 5-chloro-N-[4-(4-{[(3S,4R)-1-(2,2-difluoroethyl)-3-fluoropiperidin-4-yl]oxy}-3-methyl-1H-pyrazolo[3,4-d]pyrimidin-6-yl)phenyl]-2-fluorobenzenesulfonamide]
26 | 210 (≈ 116 µg/mL) | 0.73 (≈ 0.403 µg/mL) | [2H]C([2H])([2H])N1CC[C@@H](Oc2nc(-c3ccc(NS(=O)(=O)c4cc(Cl)ccc4F)cc3)nc3[nH]nc(C)c23)[C@@H](F)C1 [Compound 65, 5-chloro-2-fluoro-N-(4-(4-(((3S,4R)-3-fluoro-1-(methyl-d3)piperidin-4-yl)oxy)-3-methyl-1H-pyrazolo[3,4-d]pyrimidin-6-yl)phenyl)benzenesulfonamide]
27 | 32.9 (≈ 16.4 µg/mL) | 1.51 (≈ 0.751 µg/mL) | Cc1n[nH]c2nc(-c3ccc(NS(=O)(=O)c4ccccn4)cc3)nc(O[C@@H]3CCN(C)C[C@@H]3F)c12 [Compound 66, N-[4-(4-{[(3S,4R)-3-fluoro-1-methylpiperidin-4-yl]oxy}-3-methyl-1H-pyrazolo[3,4-d]pyrimidin-6-yl)phenyl]pyridine-2-sulfonamide]
